US20230173032A1, “Treatment of Hyperuricemia” (Frederiksberg Hospital, priority 2020, published 2023)

Columns and labels:
[1] = Semaglutide case studies: treatment emergent adverse events; format: in vivo, human
Description: Two patients with chronic gout and no diabetes where treated with another type of GLP-1 analog: Semaglutide subcutaneous (sc) once weekly.
Person, gout since more than 3 years no diabetes. Received 0.25 mg weekly for 6 weeks and then 0.5 mg twice.
Person, gout since more than 4 years, no diabetes. Received 0.25 mg sc for 6 weeks and 0.5 mg sc for 4 weeks.

[2] = LOSE-IT trial (NCT02905864): serious adverse events and deaths; format: in vivo, human; conditions: liraglutide 3 mg/day, 52 weeks
Description: Methods: In the LOSE-IT trial (NCT02905864), a randomised, double-blinded, placebo-controlled, parallel group, single-centre trial, 156 overweight and obese individuals with knee joint pain, were offered an initial 8-week intensive diet intervention (week −8 to 0) on Cambridge Weight Plan (800-1000 kcal/day) followed by a weight loss maintenance period in which participants were randomised to either liraglutide 3 mg/day or placebo for 52 weeks. Subjects with type 1 diabetes or type 2 diabetes with glucose-lowering drugs other than metformin were excluded from the study.

Compound	treatment emergent adverse events, Patient 1 ([1]; 8 weeks treatment, nausea during the first 2 weeks)	treatment emergent adverse events, Patient 2 ([1]; 10 weeks treatment)	deaths [2]	participants who experienced serious adverse events [2]
CC[C@H](C)[C@H](NC(=O)[C@H](Cc1ccccc1)NC(=O)[C@H](CCC(=O)O)NC(=O)[C@H](CCCCNC(=O)COCCOCCNC(=O)COCCOCCNC(=O)CC[C@H](NC(=O)CCCCCCCCCCCCCCCCC(=O)O)C(=O)O)NC(=O)[C@H](C)NC(=O)[C@H](C)NC(=O)[C@H](CCC(N)=O)NC(=O)CNC(=O)[C@H](CCC(=O)O)NC(=O)[C@H](CC(C)C)NC(=O)[C@H](Cc1ccc(O)cc1)NC(=O)[C@H](CO)NC(=O)[C@H](CO)NC(=O)[C@@H](NC(=O)[C@H](CC(=O)O)NC(=O)[C@H](CO)NC(=O)[C@@H](NC(=O)[C@H](Cc1ccccc1)NC(=O)[C@@H](NC(=O)CNC(=O)[C@H](CCC(=O)O)NC(=O)C(C)(C)NC(=O)[C@@H](N)Cc1cnc[nH]1)[C@@H](C)O)[C@@H](C)O)C(C)C)C(=O)N[C@@H](C)C(=O)N[C@@H](Cc1c[nH]c2ccccc12)C(=O)N[C@@H](CC(C)C)C(=O)N[C@H](C(=O)N[C@@H](CCCNC(=N)N)C(=O)NCC(=O)N[C@@H](CCCNC(=N)N)C(=O)NCC(=O)O)C(C)C [Semaglutide]	No treatment emergent adverse events were experienced apart from slight nausea	No treatment emergent adverse events were experienced apart from slight constipation		
CCCCCCCCCCCCCCCC(=O)N[C@@H](CCC(=O)NCCCC[C@H](NC(=O)[C@H](C)NC(=O)[C@H](C)NC(=O)[C@H](CCC(N)=O)NC(=O)CNC(=O)[C@H](CCC(=O)O)NC(=O)[C@H](CC(C)C)NC(=O)[C@H](Cc1ccc(O)cc1)NC(=O)[C@H](CO)NC(=O)[C@H](CO)NC(=O)[C@@H](NC(=O)[C@H](CC(=O)O)NC(=O)[C@H](CO)NC(=O)[C@@H](NC(=O)[C@H](Cc1ccccc1)NC(=O)[C@@H](NC(=O)CNC(=O)[C@H](CCC(=O)O)NC(=O)[C@H](C)NC(=O)[C@@H](N)Cc1cnc[nH]1)[C@@H](C)O)[C@@H](C)O)C(C)C)C(=O)N[C@@H](CCC(=O)O)C(=O)N[C@@H](Cc1ccccc1)C(=O)N[C@H](C(=O)N[C@@H](C)C(=O)N[C@@H](Cc1c[nH]c2ccccc12)C(=O)N[C@@H](CC(C)C)C(=O)N[C@H](C(=O)N[C@@H](CCCNC(=N)N)C(=O)NCC(=O)N[C@@H](CCCNC(=N)N)C(=O)NCC(=O)O)C(C)C)[C@@H](C)CC)C(=O)O [liraglutide, Arg34, Lys26-(N-epsilon-(gamma-L-glutamyl(N-alfa-hexadecanoyl)))-GLP-I(7-37)]			no deaths were observed	Four
